Data taken from patent US20250177555A1 (priority 2022, published 2025).

Test system: 293T cells
Type: cell-based

SMILES: C=C(C)[C@@H]1CCC(C)=C[C@H]1c1c(O)cc(CCCCC)cc1O [CBD, cannabidiol]
- production of gectosomes encapsulated Nluc cargo: induces an elevated production
